Test system: glia
Experiment: dual labeling of cortical slices with mag-Indo-1AM and sulforhodamine (neurons vs glia)
Type: cell-based, mice
Conditions: 145/2555; n=4 slices; neocortical slices
Method: FIGS. 9(a)-9(d) are exemplary images mag-Indo-1-AM loads mostly neurons in which slices are simultaneously loaded with mag-Indo1-AM and Sulforhodamine 101 (e.g., SR101, 20 μM) and imaged at their respective exemplary wavelengths;
(See A. Nimmerjahn, F. Kirchhoff, J. N. Kerr et al., Nat Methods 1 (1), 31 (2004)). For example, 5.7±1.56% (145/2555; n=4 slices) of mag-Indo-1AM loaded cells can also be loaded with sulforhodamine, and only 8.1 t 2.59% (145/1786, n=4 slices) of sulforhodamine-loaded cells can also be loaded with mag-Indo-1AM.
Coronal neocortical slices can be prepared from, e.g., P12-15 C57/BL6 mice or somatostatin-GFP mice (see A. A. Oliva, Jr., M. Jiang, T. Lam et al., J Neurosci 20 (9), 3354 (2000)) (e.g., Jackson Laboratory, Bar Harbor, Me.) with a vibratome (e.g., VT1000S; Leica, Nussloch, Germany). 300 μm thick slices can be cut in ice-cold oxygenated modified ACSF that can include 1 mM CaCl2 and 3 mM MgSO4, in which NaCl can be replaced by an equimolar concentration of sucrose (in mM): 27 NaHCO3, 1.5 NaH2PO4, 222 Sucrose, 2.6 KCl. Slices can then be placed in oxygenated standard ACSF at 37° C. for 30 min. For AM-loading, slices can be deposited onto the bottom of a small Petri dish (35×10 mm) filled with 2 ml of ACSF, ventilated with 95% O2/5% CO2 and placed in a slide warmer at 37° C. (Fisher Scientific, Waltham Mass.). […]

## mag-Indo-1AM
  mag-Indo-1AM loaded cells also loaded with sulforhodamine: 5.7±1.56%

Reference: patent US11531207B2, “Devices, apparatus and method for providing photostimulation and imaging of structures” (The Trustees of Columbia University in the City of New York, priority 2008, dated 2022)
